Source: patent US20250327032A1, “AGENT FOR AVOIDING IMMUNE RESPONSE OF TRANSGENIC CELLS” (HYPERION DRUG DISCOVERY CO., LTD., priority 2021, published 2025)

Tested on: human mesenchymal stem cells
Experiment: Introduction of GFP viral vector (polybrene method), yield of GFP-positive cells
Assay type: cell-based
Conditions: JSH-23 1 μM; GFP viral vector MOI 10, polybrene 5 μg/mL
Protocol: Human mesenchymal stem cells were seeded in a 6-well plate to be about 2,000 cells/cm^2. Human myoblasts were seeded in another 6-well plate to be about 2,000 cells/cm^2. As a culture solution, a basal medium for each cell supplemented with JSH-23 was used. JSH-23 was added at 1 μM to the culture solution used for human mesenchymal stem cells, and at 0.1 μM to the culture solution used for human myoblasts. As a control, a basal medium, i.e., αMEM (+10% serum) for human mesenchymal stem cells and MCDB131 (+10% serum) for human myoblasts, to which 0.1% (v/v) DMSO instead of JSH-23 was added was used as a culture solution.
A mixed solution was prepared by mixing GFP viral vector and a polybrene solution. The amount of GFP viral vector was prepared to be MOI of 10, and the amount of polybrene was prepared to be 5 μg/mL. […]
Four days after the addition of the virus-free culture solution, the cells were detached with a cell detachment solution and centrifuged at 600×g for 5 minutes using a centrifuge, to collect the cells. The collected cells were counted using a hemocytometer. Furthermore, the GFP-positive percentage of the collected cells was measured using a flow cytometer. The yield of the number of GFP-positive cells was calculated from the number of cells counted and the GFP-positive percentage.

## Cc1ccc(NCCCc2ccccc2)c(N)c1 [JSH-23]
  number of GFP-positive cells relative to control: increased
